{"source": "patent EP4379726A1", "about": "“THE METHOD FOR PREDICTING THE OCCURRENCE OF THE OFF-TARGET TOXICITY CAUSED BY SIMILARITY BETWEEN A TARGET EPITOPE AND PUTATIVE OFF-TARGET EPITOPES” (Ardigen S.A., priority 2022, dated 2024)", "origin": "cited, not measured here", "system": "AFP 158 -Specific TCR Engineered T Cells", "conditions": "in vitro X-scan, engineered T cells against AFP 158 (FMNKFIYEI)", "data": [{"sequence": "ILNKFIPDI", "values": [{"measurement": "activation of the T-cell", "value": "could activate the T-cell"}]}]}
